Reference: the supplement of paper PMC3974653
Where “and” joins values, the source holds several entries; their conditions need not be identical. Identical values can stand only once. Counter-ions that a name gives are not always drawn.

What follows are compounds tested on MTT (mouse pheochromocytoma) (assay: IC50 of cell viability (ATP content)). Details: (24 or 48 h).
In short: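 Library compounds were tested at 8 final concentrations (0.5 nM to 46 µM) on MTT mouse pheochromocytoma cells for 24 or 48 hrs, with readout by CellTiter-Glo ATP luminescence. Signals were normalised with positive-control wells at 100% and DMSO wells at 0%. IC50 values were obtained by a four-parameter logistic fit.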

Structure (SMILES) | IC50 of cell viability
OCC1O[C@H](OC2C(CO)O[C@@](O)(CO)C2O)C(O)C(O)C1O (stereo partly drawn) [LACTULOSE] | > 46 µM
CC1(C)O[C@@H]2C[C@@H]3[C@@H]4C[C@@H](F)\C5=C\C(=O)\C=C/[C@]5(C)[C@H]4[C@H](O)C[C@@]3(C)[C@]2(O1)C(=O)CO [Flunisolide] | > 46 µM
NC1C2CN(CC12)C3=NC4=C(C=C3F)C(=O)C(=C/N4C5=CC=C(F)C=C5F)\C(O)=O (stereo not drawn) [TROVAFLOXACIN MESYLATE] | > 46 µM
NC/1=N/C(=O)N(C[C@@H](CO)OC[P](O)(O)=O)/C=C1 [CIDOFOVIR] | > 46 µM
OC/C=C/c1ccccc1 [Cinnamyl alcohol] | > 46 µM
CC(C)(O)C(Cl)(Cl)Cl [CHLOROBUTANOL] | > 46 µM
CC(=O)Nc1c(I)c(NC(C)=O)c(I)c(C(=O)O)c1I [Diatrizoic acid dihydrate] | > 46 µM
CNC1=C[N+]([O-])=C(c2ccccc2)c2cc(Cl)ccc2N1 [CHLORDIAZEPOXIDE] | > 46 µM
c1cnc2cc3c(cc2n1)[C@@H]1CNC[C@@H]3C1 [Varenicline Tartrate] | > 46 µM
C=CCSSSCC=C [DIALLYL TRISULFIDE] | > 46 µM
Clc1ccc(CC[C@H](Cn2ccnc2)Sc2c(Cl)cccc2Cl)cc1 [Butoconazole nitrate] | > 46 µM
O=c1[nH]c(=O)c2ccccc2o1 [Carsalam] | > 46 µM
O=C(CCNNC(=O)c1ccncc1)NCc1ccccc1 [Nialamide] | > 46 µM
O=C1OC(CO)C(O)C(O)C1O (stereo not drawn) [GLUCONOLACTONE] | > 46 µM
COc1cc(Nc2c(C#N)cnc3cc(OCCCN4CCN(C)CC4)c(OC)cc23)c(Cl)cc1Cl [Bosutinib Methanoate] | > 46 µM
C1\C=C/C2C\3CC(\C=C3)C12 (stereo not drawn) [Dicyclopentadiene] | > 46 µM
CC(C)[C@H](N)C(=O)OCC(CO)OC[N]1C=NC2=C1\N=C(\N)NC2=O (stereo partly drawn) [VALGANCICLOVIR HYDROCHLORIDE] | > 46 µM
OCCOCCN1CCN(CC1)C/2=N/C3=CC=CC=C3SC4=CC=CC=C24 [quetiapine] | > 46 µM
COc1c2c(cc3c1OCO3)CCN(C)C2 [Hydrocotarnine hydrobromide] | > 46 µM
COC(=O)[C@H]1[C@H]2C[C@@H]3c4[nH]c5cc(OC)ccc5c4CCN3C[C@H]2C[C@@H](OC(=O)c2cc(OC)c(OC)c(OC)c2)[C@@H]1OC [Reserpine] | > 46 µM
NC(CSCC(=O)O)C(=O)O (stereo not drawn) [CARBOCISTEINE] | > 46 µM
CCCCCCCCCCOc1cc2c(O)c(C(=O)OCC)cnc2cc1OCC [DECOQUINATE] | > 46 µM
CCCCC(CC)CCC(CC(C)C)OS(=O)(=O)[O-] (stereo not drawn) [NiaproofÆ 4] | > 46 µM
C[N+](C)(C)CCO [Choline bromide] | > 46 µM
c1ccc2occc2c1 [2,3-Benzofuran] | > 46 µM
Cc1ccc(C2(O)CCN(CCCC(=O)c3ccc(F)cc3)CC2)cc1 [Moperone] | > 46 µM

Structure (SMILES) | IC50 of cell viability
CC(C)(O)C1C2OC(=O)C1C1(O)CC3OC34C(=O)OC2C14C (stereo not drawn) [PICROTOXIN] | > 46 µM
CC(=O)Nc1ccccc1 [Acetanilide] | > 46 µM
CN1C(=O)CC[C@H]1c1cccnc1 [(-)-COTININE] | > 46 µM
CCOC(=O)C/1=C/C(OC(CC)CC)C(NC(C)=O)C(N)C1.OC(C(O)C(O)=O)C(O)=O (stereo not drawn) [OSELTAMIVIR TARTRATE] | > 46 µM
C[C@]12CC[C@@H]3c4ccc(O)cc4CC[C@H]3[C@@H]1C[C@H](O)C2O (stereo partly drawn) [Epiestriol] | > 46 µM
CCC(=O)O[C@@](Cc1ccccc1)(c1ccccc1)[C@H](C)CN(C)C | > 46 µM
CN1CC[C@]23c4c5ccc(O)c4OC2C(O)CCC3[C@H]1C5 (stereo partly drawn) [Dihydromorphine] | > 46 µM
CN(C)/N=N/c1nc[nH]c1C(N)=O [Dacarbazine] | > 46 µM
C[C@]12CC[C@H]3c4ccc(O)cc4CC[C@@H]3[C@H]1CC[C@@H]2OP(=O)(O)O [Estradiol phosphate] | > 46 µM
C=C[C@@]1(C)C[C@H](OC(=O)CSC(C)(C)CNC(=O)[C@@H](N)C(C)C)[C@@]2(C)C(C)CC[C@@]3(CCC(=O)[C@@H]32)[C@H](C)[C@H]1O (stereo partly drawn) [VALNEMULIN HYDROCHLORIDE] | > 46 µM
CCCCC(=O)O[C@]1(C(=O)CO)[C@H](C)C[C@H]2[C@@H]3CCC4=CC(=O)C=C[C@]4(C)[C@@]3(F)[C@@H](O)C[C@@]21C [DEXAMETHASONE VALERATE] | > 46 µM
CO/N=C(\C(=O)N[C@@H]1C(=O)N2C(C(=O)[O-])=C(C[n+]3cccc4c3CCCC4)CS[C@H]12)c1csc(N)n1 [CEFQUINOME sulfate] | > 46 µM
COC(=O)C\1=C(C)\N\C(=C(/[C@@H]1C2=CC(=CC=C2)[N+]([O-])=O)C(=O)O[C@@H]3CCCN(C3)CC4=CC=CC=C4)C (racemic) [rac Benidipine Hydrochloride] | > 46 µM
CCCCCCCCCCCCCCCCCCOC[C@H](COP(=O)([O-])OCC[N+](C)(C)C)OC [ET-18-OCH3] | > 46 µM
COc1ccc(C(=O)CC(=O)c2ccc(C(C)(C)C)cc2)cc1 [AVOBENZONE] | > 46 µM
COc1ccc(C(=O)c2ccccc2)c(O)c1 [Oxybenzone] | > 46 µM
CC(=O)NC1[C@H](O)C[C@@](O)(C(=O)O)O[C@H]1[C@H](O)[C@H](O)CO (stereo partly drawn) [ACIDUM ACENEURAMICUM] | > 46 µM
O=C(O[C@H]1CN2CCC1CC2)N1CCc2ccccc2[C@@H]1c1ccccc1 [SOLIFENACIN SUCCINATE] | > 46 µM
CCC(COC(=O)c1cc(OC)c(OC)c(OC)c1)(c1ccccc1)N(C)C.O=C(O)/C=C\C(=O)O (stereo not drawn) [TRIMEBUTINE MALEATE] | > 46 µM
Cc1ccnc(N[S+](=O)([O-])c2ccc(N)cc2)n1 [Sulfamerazine] | > 46 µM
CCCCCCCCCCCCCCNCCO [MYRALACTUM] | > 46 µM
CN(C)CC/C=C1\c2ccccc2COc2ccc(CC(=O)O)cc21 [OLOPATADINE HYDROCHLORIDE] | > 46 µM
CN1c2c(O)nc(N)nc2NCC1CNc1ccc(C(=O)NC(CCC(=O)[O-])C(=O)[O-])cc1 (stereo not drawn) [5-METHYLTETRAHYDROFOLATE SODIUM SALT] | > 46 µM
CC(=O)[C@H]1CC[C@H]2[C@@H]3CC[C@H]4C[C@H](O)CC[C@]4(C)[C@H]3CC[C@]12C [5-alpha-PREGNAN-3-alpha-OL-20-ONE] | > 46 µM
CN1CCC(OC(=O)C(Oc2ccc(Cl)cc2)Oc2ccc(Cl)cc2)CC1 [Lifibrate] | > 46 µM
NC/1=N/C(=O)N(/C=C1)[C@@H]2O[C@H](CO)[C@@H](O)C2(F)F [GEMCITABINE HYDROCHLORIDE] | > 46 µM

Each compound was assayed on MTT (mouse pheochromocytoma) (assay: efficacy (maximal response) relative to doxorubicin = -100% and DMSO = 0%; higher = less inhibition of viability). Details: (24 or 48 h).

Structure (SMILES) | efficacy
Cl.CC[C@@]1(O)C(=O)OCC/2=C1/C=C/3N(CC4=C3N=C5C=CC(=C(CN(C)C)C5=C4)O)C2=O [TOPOTECAN HYDROCHLORIDE] | -89.7%
CCCCCCCCCCCCCCCC[N+](C)(C)C [Cetyltrimethylammonium bromide] | -89.1%
N=c1ccn2c(n1)O[C@H]1[C@H](O)[C@@H](CO)O[C@H]12 [Ancitabina] | -68.2%
COC(=O)Nc1nc2cc(C(=O)c3ccccc3)ccc2[nH]1 [Mebendazole] | -49.2%
COC(=O)Nc1nc2cc(C(=O)c3cccs3)ccc2[nH]1 [Nocodazole] | -60.2%
C=CCNC1=C2C[C@@H](C)C[C@H](OC)[C@H](O)[C@@H](C)/C=C(\C)[C@H](OC(N)=O)[C@@H](OC)C=C/C=C(\C)C(=O)NC(=CC1=O)C2=O [17-Allylamino-geldanamycin] | -80.6%
Cc1cc(CC(C)CC(C)(C)C)n(O)c(=O)c1 (stereo not drawn) [PIROCTONE OLAMINE] | -49%
CC[C@@]1(O)C[C@H](O[C@H]2C[C@@H](N(C)C)[C@@H](O[C@H]3C[C@@H](O)[C@@H](O[C@H]4CCC(=O)[C@@H](C)O4)[C@@H](C)O3)[C@@H](C)O2)c2c(cc3c(c2O)C(=O)c2c(O)cccc2C3=O)[C@H]1C(=O)OC [ACLARUBICIN HYDROCHLORIDE] | -41.5%
C[N+]12CCCC[C@@H]1CCC(=C(c1cccs1)c1cccs1)C2 (stereo partly drawn) [TIQUIZIUM BROMIDE] | -51.7%
O=C(CCl)c1ccc(Cl)cc1Cl [2,2',4'-Trichloroacetophenone] | -84.4% and -71.5%
CC[NH+](CC)CCCN(c1ccccc1)C1Cc2ccccc2C1 [APRINDINE HYDROCHLORIDE] | -107%
CNC(=O)c1cc(Oc2ccc(NC(=O)Nc3ccc(Cl)c(C(F)(F)F)c3)cc2)ccn1 [SORAFENIB TOSYLATE] | -44.4%
CCOc1ccc(/N=N/c2ccc(N)cc2N)cc1 [Ethoxazene hydrochloride] | -57.4%

These compounds were tested on MTT (mouse pheochromocytoma) (assay: IC50 of cell viability (ATP content); AC50 where efficacy is positive). Details: (24 or 48 h).

Structure (SMILES) | IC50 of cell viability
Cl.CC[C@@]1(O)C(=O)OCC/2=C1/C=C/3N(CC4=C3N=C5C=CC(=C(CN(C)C)C5=C4)O)C2=O [TOPOTECAN HYDROCHLORIDE] | 4.73 µM
CCCCCCCCCCCCCCCC[N+](C)(C)C [Cetyltrimethylammonium bromide] | 13.3 µM
N=c1ccn2c(n1)O[C@H]1[C@H](O)[C@@H](CO)O[C@H]12 [Ancitabina] | 2.37 µM
COC(=O)Nc1nc2cc(C(=O)c3ccccc3)ccc2[nH]1 [Mebendazole] | 0.64 µM
COC(=O)Nc1nc2cc(C(=O)c3cccs3)ccc2[nH]1 [Nocodazole] | 0.531 µM
C=CCNC1=C2C[C@@H](C)C[C@H](OC)[C@H](O)[C@@H](C)/C=C(\C)[C@H](OC(N)=O)[C@@H](OC)C=C/C=C(\C)C(=O)NC(=CC1=O)C2=O [17-Allylamino-geldanamycin] | 4.22 µM
Cc1cc(CC(C)CC(C)(C)C)n(O)c(=O)c1 (stereo not drawn) [PIROCTONE OLAMINE] | 15 µM
CC[C@@]1(O)C[C@H](O[C@H]2C[C@@H](N(C)C)[C@@H](O[C@H]3C[C@@H](O)[C@@H](O[C@H]4CCC(=O)[C@@H](C)O4)[C@@H](C)O3)[C@@H](C)O2)c2c(cc3c(c2O)C(=O)c2c(O)cccc2C3=O)[C@H]1C(=O)OC [ACLARUBICIN HYDROCHLORIDE] | 2.11 µM
C[N+]12CCCC[C@@H]1CCC(=C(c1cccs1)c1cccs1)C2 (stereo partly drawn) [TIQUIZIUM BROMIDE] | 1.88 µM
O=C(CCl)c1ccc(Cl)cc1Cl [2,2',4'-Trichloroacetophenone] | 8.63 µM and 3.76 µM
CC[NH+](CC)CCCN(c1ccccc1)C1Cc2ccccc2C1 [APRINDINE HYDROCHLORIDE] | 26.6 µM
CNC(=O)c1cc(Oc2ccc(NC(=O)Nc3ccc(Cl)c(C(F)(F)F)c3)cc2)ccn1 [SORAFENIB TOSYLATE] | 8.41 µM
CCOc1ccc(/N=N/c2ccc(N)cc2N)cc1 [Ethoxazene hydrochloride] | 11.9 µM
